Values of other authors, collected in US20150224078A1, “Methods for the Treatment of Lung Diseases with Mast Cell Stabilizers” (Patara Pharma, LLC, priority 2014, published 2015).

Conditions: Richards et al, 1987

oral bioavailability: about 1%
SMILES: O=C(O)c1cc(=O)c2c(OCC(O)COc3cccc4oc(C(=O)O)cc(=O)c34)cccc2o1 [cromolyn sodium]
